# Like-named read-outs stand apart in the source and are kept apart here.
# Target: T1, glucocorticoid receptor (GR) (Rattus norvegicus, UniProt P06536)
# T1 construct: cytosol preparations that consist of the thymus homogenates of rats; from tissue; host or cells: rat thymus homogenate, cytosol
# T1 sequence (P06536 1-795): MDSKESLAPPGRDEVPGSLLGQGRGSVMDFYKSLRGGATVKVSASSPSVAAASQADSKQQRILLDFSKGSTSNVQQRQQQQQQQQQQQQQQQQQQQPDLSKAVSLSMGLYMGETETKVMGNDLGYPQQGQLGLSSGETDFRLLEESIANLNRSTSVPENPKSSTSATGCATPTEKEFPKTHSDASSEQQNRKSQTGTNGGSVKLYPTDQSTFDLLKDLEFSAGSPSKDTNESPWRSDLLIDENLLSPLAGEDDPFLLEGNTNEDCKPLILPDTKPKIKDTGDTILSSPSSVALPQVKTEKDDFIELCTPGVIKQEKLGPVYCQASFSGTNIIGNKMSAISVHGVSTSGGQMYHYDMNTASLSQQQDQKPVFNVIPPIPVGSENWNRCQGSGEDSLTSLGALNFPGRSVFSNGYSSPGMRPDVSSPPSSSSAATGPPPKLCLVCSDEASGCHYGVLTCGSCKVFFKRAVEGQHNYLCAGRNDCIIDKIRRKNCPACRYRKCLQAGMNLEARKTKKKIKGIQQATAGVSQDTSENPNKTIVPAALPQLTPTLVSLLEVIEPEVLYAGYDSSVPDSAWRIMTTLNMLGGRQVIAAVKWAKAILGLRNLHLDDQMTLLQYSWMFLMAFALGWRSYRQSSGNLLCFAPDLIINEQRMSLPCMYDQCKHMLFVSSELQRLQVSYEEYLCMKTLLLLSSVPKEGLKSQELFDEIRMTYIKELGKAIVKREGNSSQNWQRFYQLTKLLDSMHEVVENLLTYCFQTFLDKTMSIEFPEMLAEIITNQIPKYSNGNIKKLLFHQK
# Assay: glucocorticoid receptor (GR)-binding test, cytosol of rat thymus homogenates, [3H]-dexamethasone
# [1] = 10 nM [3H]-dexamethasone, rat thymus cytosol, read-out: IC50 (GR-binding test)
IC50 [1] [nM],IC50 [nM],Structure (SMILES)
2.3,,"CC(C)(CC(O)(CNc1ccc2c(c1)COC2=O)C(F)(F)F)c1cc(F)ccc1O (centres unmarked) [ii, 5-[4-(5-fluoro-2-hydroxyphenyl)-2-hydroxy-4-methyl-2-trifluoromethyl-pentylamino]-phthalide]"
4.9,,"COc1cc(Br)ccc1C(C)(C)CC(O)(C(=O)Nc1ccc2c(=O)onc(C)c2c1)C(F)(F)F (centres unmarked) [iv, 6-[4-(4-bromo-2-methoxyphenyl)-2-hydroxy-4-methyl-2-trifluoromethyl-valeroylamino]-4-methyl-2,3-benzoxazin-1-one]"
4.6,,"COc1ccc(F)cc1C(C)(C)CC(O)(C(=O)Nc1ccc2c(=O)onc(C)c2c1)C(F)(F)F (centres unmarked) [iii, 6-[4-(5-fluoro-2-methoxyphenyl)-2-hydroxy-4-methyl-2-trifluoromethyl-valeroylamino]-4-methyl-2,3-benzoxazin-1-one]"
,2.6,"Cc1noc(=O)c2ccc(NC(=O)C(O)(CC(C)(C)c3cc(F)ccc3O)C(F)(F)F)cc12 (centres unmarked) [v, 6-[4-(5-fluoro-2-hydroxyphenyl)-2-hydroxy-4-methyl-2-trifluoromethyl-valeroylamino]-4-methyl-2,3-benzoxazin-1-one]"
,2.8,"CC(C)(CC(O)(C(=O)Nc1ccc2c(c1)COC2=O)C(F)(F)F)c1cc(F)ccc1O (centres unmarked) [i, 5-[4-(5-Fluoro-2-hydroxyphenyl)-2-hydroxy-4-methyl-2-trifluoromethyl-valeroylamino]-phthalide]"

# Reference: US6323199A, “Nonsteroidal anti-inflammatory agents” (Schering Aktiengesellschaft, priority 1998, dated 2001)
